The test system of series [1] is Colletotrichum lindemuthianum. Kind of series: Colletotrichum lindemuthianum in vitro cell test. The following applies: 144 h, 20 ppm of active ingredient, liquid culture, 6 days incubation, read-out: efficacy (inhibition of fungal growth). The series is classed as cell-based. As to the method: (§1) Example: Colletotrichum lindemuthianum In Vitro Cell Test • Solvent: DMSO • Culture medium: 14.6 g anhydrous D-glucose (VWR), 7.1 g Mycological Peptone (Oxoid), 1.4 g granulated Yeast Extract (Merck), QSP 1 liter • Inoculum: spores suspension Fungicides were solubilized in DMSO and the solution used to prepare the required range of concentrations. The final concentration of DMSO used in the assay was ≤1%. A spore suspension of C. lindemuthianum was prepared and diluted to the desired spore density. Fungicides were evaluated for their ability to inhibit spores germination and mycelium growth in liquid culture assay. The compounds were added in the desired concentration to the culture medium with spores. After 6 days incubation, fungi-toxicity of compounds was determined by spectrometric measurement of mycelium growth. Inhibition of fungal growth was determined by comparing the absorbance values in wells containing the fungicides with the absorbance in control wells without fungicides.

Series [2] relates to Alternaria brassicae. Kind of series: In vivo preventive test on Alternaria brassicae (leaf spot on radish or cabbage). The following applies: 144 h, 500 ppm of active ingredient, preventive spray on radish or cabbage, evaluated 6 days after inoculation, read-out: efficacy. As to the method:
Example: In Vivo Preventive Test on Alternaria brassicae (Leaf Spot on Radish or Cabbage)
(§2) • Solvent: 5% by volume of Dimethyl sulfoxide • 10% by volume of Acetone • Emulsifier: 1 μl of Tween® 80 per mg of active ingredient
(§3) The active ingredients were made soluble and homogenized in a mixture of Dimethyl sulfoxide/Acetone//Tween®80 and then diluted in water to the desired concentration.
The young plants of radish or cabbage were treated by spraying the active ingredient prepared as described above. Control plants were treated only with an aqueous solution of Acetone/Dimethyl sulfoxide/Tween® 80.
After 24 hours, the plants were contaminated by spraying the leaves with an aqueous suspension of Alternaria brassicae spores. The contaminated radish or cabbage plants were incubated for 6 days at 20° C. and at 100% relative humidity.
The test was evaluated 6 days after the inoculation. 0% means an efficacy which corresponds to that of the control plants while an efficacy of 100% means that no disease was observed.

For series [3], the system named is Sphaerotheca fuliginea. Kind of series: In vivo preventive test on Sphaerotheca fuliginea (powdery mildew on cucurbits). As to conditions: Podosphaera fuliginea, 192 h; 500 ppm of active ingredient; preventive spray on gherkin; evaluated 8 days after inoculation; read-out: efficacy. As to the method:
Example: In Vivo Preventive Test on Sphaerotheca fuliginea (Powdery Mildew on Cucurbits)
as §2, §3
The young plants of gherkin were treated by spraying the active ingredient prepared as described above. Control plants were treated only with an aqueous solution of Acetone/Dimethyl sulfoxide/Tween® 80.
After 24 hours, the plants were contaminated by spraying the leaves with an aqueous suspension of Sphaerotheca fuliginea spores. The contaminated gherkin plants were incubated for 8 days at 20° C. and at 70-80% relative humidity.
The test was evaluated 8 days after the inoculation. 0% means an efficacy which corresponds to that of the control plants while an efficacy of 100% means that no disease was observed.

Series [4] concerns Alternaria alternata. Briefly: Alternaria alternata in vitro cell test. The series is classed as cell-based. The following applies: 120 h, 20 ppm of active ingredient, liquid culture, 5 days incubation, read-out: efficacy (inhibition of fungal growth). As for the experimental part:
as §1, with “Example: Alternaria alternata” for “Example: Colletotrichum lindemuthianum”, “of A. alternata” for “of C. lindemuthianum”, “inhibit spore” for “inhibit spores”, “After 5” for “After 6”

Series [5] relates to Pyrenophora teres. Kind of series: In vivo preventive test on Pyrenophora teres (net blotch on barley). The following applies: 240 h, 500 ppm of active ingredient, preventive spray on barley, evaluated 10 days after inoculation, read-out: efficacy. As to the method:
Example: In Vivo Preventive Test on Pyrenophora teres (Net Blotch on Barley)
as §2, §3
The young plants of barley were treated by spraying the active ingredient prepared as described above. Control plants were treated only with an aqueous solution of Acetone/Dimethyl sulfoxide/Tween®80.
After 24 hours, the plants were contaminated by spraying the leaves with an aqueous suspension of Pyrenophora teres spores. The contaminated barley plants were incubated for 48 hours at 20° C. and at 100% relative humidity and then for 8 days at 20° C. and at 70-80% relative humidity.
The test was evaluated 10 days after the inoculation. 0% means an efficacy which corresponds to that of the control plants while an efficacy of 100% means that no disease was observed.

Series [6] has as its system Botrytis cinerea. Briefly: In vivo preventive test on Botrytis cinerea (grey mould). The following applies: 500 ppm of active ingredient, preventive spray on gherkin or cabbage, evaluated 4 to 5 days after inoculation, read-out: efficacy. As to the method: Example: In Vivo Preventive Test on Botrytis cinerea (Grey Mould)
as §2, §3
The young plants of gherkin or cabbage were treated by spraying the active ingredient prepared as described above. Control plants were treated only with an aqueous solution of Acetone/Dimethyl sulfoxide/Tween® 80.
After 24 hours, the plants were contaminated by spraying the leaves with an aqueous suspension of Botrytis cinerea spores. The contaminated gherkin plants were incubated for 4 to 5 days at 17° C. and at 90% relative humidity. The contaminated cabbage plants were incubated for 4 to 5 days at 20° C. and at 100% relative humidity.
The test was evaluated 4 to 5 days after the inoculation. 0% means an efficacy which corresponds to that of the control plants while an efficacy of 100% means that no disease was observed.

Series [7] has as its system Colletotrichum lindemuthianum. Kind of series: In vivo preventive test on Colletotrichum lindemuthianum (leaf spot on bean). As to conditions: 168 h, 500 ppm of active ingredient, preventive spray on bean, evaluated 7 days after inoculation, read-out: efficacy. As to the method: Example: In Vivo Preventive Test on Colletotrichum lindemuthianum (Leaf Spot on Bean)
as §2, §3
The young plants of bean were treated by spraying the active ingredient prepared as described above. Control plants were treated only with an aqueous solution of Acetone/Dimethyl sulfoxide/Tween® 80.
After 24 hours, the plants were contaminated by spraying the leaves with an aqueous suspension of Colletotrichum lindemuthianum spores. The contaminated bean plants were incubated for 24 hours at 20° C. and at 100% relative humidity and then for 6 days at 20° C. and at 90% relative humidity.
The test was evaluated 7 days after the inoculation. 0% means an efficacy which corresponds to that of the control plants while an efficacy of 100% means that no disease was observed.

Series [8] deals with Septoria tritici. Kind of series: In vivo preventive test on Septoria tritici (leaf spot on wheat). The following applies: Zymoseptoria tritici, in Triticum aestivum; 500 ppm of active ingredient; preventive spray on wheat; evaluated 19 days after inoculation; read-out: efficacy. As for the experimental part:
Example: In Vivo Preventive Test on Septoria tritici (Leaf Spot on Wheat)
as §2, §3
The young plants of wheat were treated by spraying the active ingredient prepared as described above. Control plants were treated only with an aqueous solution of Acetone/Dimethyl sulfoxide/Tween®80.
After 24 hours, the plants were contaminated by spraying the leaves with an aqueous suspension of Septoria tritici spores. The contaminated wheat plants were incubated for 72 hours at 17° C. and at 100% relative humidity and then for 15 days at 20° C. and at 90% relative humidity.
The test was evaluated 19 days after the inoculation. 0% means an efficacy which corresponds to that of the control plants while an efficacy of 100% means that no disease was observed.

Series [9] is described as follows: Measurement of LogP values by HPLC on reversed phase columns (EEC directive 79/831 Annex V.A8), methods [a], [b], [c]. The following applies: HPLC on reversed phase column, method [a]; read-out: Log P. The series is classed as physicochemical. An outline of the steps: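 Log P determined by reversed-phase HPLC following EEC directive 79/831 Annex V.A8. Multiple values within one method are listed joined by "+". Lambda-max taken from UV spectra over 200–400 nm at chromatographic peak maxima.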

In series [10] the test system is Septoria tritici. Kind of series: Septoria tritici in vitro cell test. The series is classed as cell-based. The following applies: Zymoseptoria tritici, 168 h; 20 ppm of active ingredient; liquid culture, 7 days incubation; read-out: efficacy (inhibition of fungal growth). As to the method: Example: Septoria tritici In Vitro Cell Test • Solvent: DMSO • Culture medium: 14.6 g anhydrous D-glucose (VWR), 7.1 g Bacteriological Peptone (Oxoid), • 1.4 g granulated Yeast Extract (Merck), QSP 1 liter • Inoculum: spore suspension Fungicides were solubilized in DMSO and the solution used to prepare the required range of concentrations. The final concentration of DMSO used in the assay was ≤1%. A spore suspension of Septoria tritici was prepared and diluted to the desired spore density. Fungicides were evaluated for their ability to inhibit spore germination and mycelium growth in liquid culture assay. The compounds were added in the desired concentration to the culture medium with spores. After 7 days incubation, fungi-toxicity of compounds was determined by spectrometric measurement of mycelium growth. Inhibition of fungal growth was determined by comparing the absorbance values in wells containing the fungicides with the absorbance in control wells without fungicides.

Series [11] can be described thus: LogP determination. The series is classed as physicochemical. As to conditions: reversed phase HPLC column; method [a].

In general, inhibition refers to how much of the control response was suppressed.

Consider `CC(=O)c1cc(C2=NOCC(Cc3ccc(C)cc3C)N2)c(Oc2cccc(C(F)(F)F)c2)nn1` (racemic) [I-042, 1-[5-[rac-5-[(2,4-dimethylphenyl)methyl]-5,6-dihydro-4H-1,2,4-oxadiazin-3-yl]-6-[3-(trifluoromethyl)phenoxy]pyridazin-3-yl]ethanone], for which the inhibition at 20 ppm in [1] and in [4] was 90 to 100% each time. The pest or weed control at 500 ppm in series [2], in [3], in [5], in series [6], in series [7] and in [8] was 90 to 100% each time. In addition, the chromatographic logP in series [9] was found to be 4.27.

Consider `Cc1ccc(CC2CON=C(c3cc(Cl)nnc3Oc3cccc(C(F)(F)F)c3)N2)c(C)c1` (racemic) [I-059, rac-3-[6-chloro-3-[3-(trifluoromethyl)phenoxy]pyridazin-4-yl]-5-[(2,4-dimethylphenyl)methyl]-5,6-dihydro-4H-1,2,4-oxadiazine], for which the inhibition at 20 ppm in [1], in series [4] and in series [10] was 90 to 100% each time. Moreover, the pest or weed control at 500 ppm in [2], in series [3], in series [5], in [6], in [7] and in series [8] was 90 to 100% throughout.

Regarding `Cc1ccc(CC2CON=C(c3c(Oc4cccc(C(F)(F)F)c4)nnc(Cl)c3-c3ccncc3)N2)c(C)c1` (racemic) [I-088, rac-3-[6-chloro-5-(4-pyridyl)-3-[3-(trifluoro-methyl)phenoxy]pyridazin-4-yl]-5-[(2,4-dimethylphenyl)methyl]-5,6-dihydro-4H-1,2,4-oxadiazine], the inhibition at 20 ppm in [1] and in [4] was 90 to 100% each time. Also, the pest or weed control at 500 ppm in [2] is 90 to 100%; in series [3], 90 to 100%; in series [5] it was 90 to 100%; in series [6] it was 90 to 100%; in series [7] it was 90 to 100%; in series [8], 70 to 79%. In addition, the chromatographic logP in series [9] was found to be 3.76.

As to `COC(=N)c1cc(Cl)nnc1Oc1cccc(C2CC2)c1` [25-01, methyl 6-chloro-3-(3-cyclopropylphenoxy)pyridazine-4-carboximidate], the chromatographic logP in series [11] was 3.08.

In series [11], `COC(=N)c1cc(Cl)nnc1Oc1cccc(C(F)(F)F)c1` [25-02, methyl 6-chloro-3-[3-(trifluoromethyl)phenoxy]pyridazine-4-carboximidate] showed a chromatographic logP of 3.

`Cc1cc(C(N)=NOCC=Cc2ccc3c(ccn3C)c2)c(Oc2cccc(C(F)(F)F)c2)nn1` [30-01, 6-methyl-N′-[3-(1-methylindol-5-yl)allyloxy]-3-[3-(trifluoromethyl)phenoxy]pyridazine-4-carboxamidine]: the chromatographic logP in series [11] stood at 3.92.

In the case of `Cc1ccc(CC2CON=C(c3cc(C)nnc3Oc3cccc(Cl)c3F)N2)c(Cl)c1` (stereo not drawn) [I-302], the inhibition at 20 ppm in series [1], in series [4] and in series [10] was 90 to 100% throughout. In addition, the pest or weed control at 500 ppm in series [2], in [3], in series [5], in series [6], in [7] and in series [8] was 90 to 100% in each case.

Source of the values: patent US12501900B2, “Heterocyclyl pyridazine as fungicidal compounds” (Bayer Aktiengesellschaft, priority 2018, dated 2025).
